Test results: ChEMBL document CHEMBL3868599, “Strategy for designing selective α-l-rhamnosidase inhibitors: Synthesis and biological evaluation of l-DMDP cyclic isothioureas” (Bioorg Med Chem, 2017)

Assays:
[1] = biological target: T1, Tissue alpha-L-fucosidase (Bos taurus) (UniProt Q2KIM0); test: Inhibition of bovine kidney alpha-L-fucosidase at 100 uM using p-nitrophenyl-glycoside as substrate by spectrophotometric method
T1 sequence (whole entry): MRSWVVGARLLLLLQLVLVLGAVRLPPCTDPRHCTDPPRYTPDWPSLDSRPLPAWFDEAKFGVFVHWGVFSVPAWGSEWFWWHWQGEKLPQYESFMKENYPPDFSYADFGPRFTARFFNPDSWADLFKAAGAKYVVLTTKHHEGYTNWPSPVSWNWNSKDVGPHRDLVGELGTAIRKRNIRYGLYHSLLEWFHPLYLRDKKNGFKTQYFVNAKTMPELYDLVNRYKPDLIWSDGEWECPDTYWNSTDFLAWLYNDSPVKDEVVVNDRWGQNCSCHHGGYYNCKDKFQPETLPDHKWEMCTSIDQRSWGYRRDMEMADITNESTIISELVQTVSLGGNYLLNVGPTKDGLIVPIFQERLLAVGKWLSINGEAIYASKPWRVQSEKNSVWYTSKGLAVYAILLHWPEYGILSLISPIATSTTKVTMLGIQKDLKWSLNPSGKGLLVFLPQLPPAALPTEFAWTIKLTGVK

[2] = biological target: T2, Beta-galactosidase (Bos taurus) (UniProt Q58D55); test: Inhibition of bovine liver beta-galactosidase at 100 uM using p-nitrophenyl-glycoside as substrate by spectrophotometric method
T2 sequence (whole entry): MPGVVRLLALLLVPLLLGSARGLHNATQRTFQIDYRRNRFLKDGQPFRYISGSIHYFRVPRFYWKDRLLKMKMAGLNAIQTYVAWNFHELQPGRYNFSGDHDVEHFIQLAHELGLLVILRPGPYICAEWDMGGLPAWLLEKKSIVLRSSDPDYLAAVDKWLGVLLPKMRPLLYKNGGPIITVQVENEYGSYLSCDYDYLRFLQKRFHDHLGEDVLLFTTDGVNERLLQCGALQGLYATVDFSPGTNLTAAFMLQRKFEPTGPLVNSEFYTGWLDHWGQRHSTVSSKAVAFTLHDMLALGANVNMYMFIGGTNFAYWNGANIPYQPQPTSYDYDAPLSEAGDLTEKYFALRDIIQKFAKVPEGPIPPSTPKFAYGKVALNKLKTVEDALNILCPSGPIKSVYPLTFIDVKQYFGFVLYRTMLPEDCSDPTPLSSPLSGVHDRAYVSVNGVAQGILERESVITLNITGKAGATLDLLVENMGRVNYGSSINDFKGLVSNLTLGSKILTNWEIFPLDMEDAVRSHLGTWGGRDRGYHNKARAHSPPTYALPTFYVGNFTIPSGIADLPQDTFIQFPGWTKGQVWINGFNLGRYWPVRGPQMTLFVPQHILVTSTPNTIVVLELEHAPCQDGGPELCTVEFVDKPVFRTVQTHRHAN

Escherichia coli [3] = test: Inhibition of Escherichia coli beta-glucuronidase at 100 uM using p-nitrophenyl-glycoside as substrate by spectrophotometric method
Bos taurus [4] = species on record: Bos taurus; test: Inhibition of bovine liver beta-glucosidase at 100 uM using p-nitrophenyl-glycoside as substrate by spectrophotometric method
[5] = biological target: T3, Uncharacterized protein (Sus scrofa) (UniProt I3LIR5); test: Inhibition of porcine kidney trehalase assessed as D-glucose level at 100 uM using maltose as substrate measured after 10 to 30 mins
T3 sequence (whole entry): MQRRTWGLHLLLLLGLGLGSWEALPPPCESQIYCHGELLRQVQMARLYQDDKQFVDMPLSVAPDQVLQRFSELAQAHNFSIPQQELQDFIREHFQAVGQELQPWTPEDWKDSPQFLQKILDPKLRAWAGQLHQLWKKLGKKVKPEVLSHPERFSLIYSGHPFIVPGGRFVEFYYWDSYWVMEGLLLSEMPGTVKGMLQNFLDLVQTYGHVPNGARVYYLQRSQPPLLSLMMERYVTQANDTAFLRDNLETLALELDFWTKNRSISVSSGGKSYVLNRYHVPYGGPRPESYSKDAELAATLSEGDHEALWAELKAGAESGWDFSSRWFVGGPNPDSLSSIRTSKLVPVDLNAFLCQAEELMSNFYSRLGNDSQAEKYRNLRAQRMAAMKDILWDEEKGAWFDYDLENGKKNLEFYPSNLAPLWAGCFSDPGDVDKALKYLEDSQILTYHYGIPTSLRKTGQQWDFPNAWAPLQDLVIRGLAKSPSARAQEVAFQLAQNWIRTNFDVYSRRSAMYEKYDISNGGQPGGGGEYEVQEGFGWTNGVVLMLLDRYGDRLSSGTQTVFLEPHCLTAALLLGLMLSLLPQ

Prunus dulcis [6] = test: Inhibition of almond beta-glucosidase at 100 uM using p-nitrophenyl-glycoside as substrate by spectrophotometric method
Rattus norvegicus [7] = species on record: Rattus norvegicus; test: Inhibition of rat intestinal maltase assessed as D-glucose level at 100 uM using maltose as substrate measured after 10 to 30 mins
Homo sapiens [8] = species on record: Homo sapiens; test: Inhibition of human lysosomal beta-glucosidase at 100 uM using 4-methylumbelliferyl-beta-D-glucopyranoside as substrate preincubated for 45 mins followed by substrate addition measured after 30 mins by fluorescence spectrophotometric method
Oryza sativa = test: Inhibition of rice alpha-glucosidase at 100 uM using p-nitrophenyl-glycoside as substrate by spectrophotometric method
Aspergillus niger [9] = test: Inhibition of Aspergillus niger amyloglucosidase assessed as D-glucose level at 100 uM using maltose as substrate measured after 10 to 30 mins
[10] = Inhibition of Penicillium decumbens alpha-L-rhamnosidase using p-nitrophenyl-glycoside as substrate by spectrophotometric method
[11] = biological target: T3, Uncharacterized protein (Sus scrofa); test: Inhibition of porcine kidney trehalase assessed as D-glucose level at 1000 uM using maltose as substrate measured after 10 to 30 mins
Aspergillus niger [12] = test: Inhibition of Aspergillus niger amyloglucosidase assessed as D-glucose level at 1000 uM using maltose as substrate measured after 10 to 30 mins
[13] = Inhibition of rice alpha-glucosidase using p-nitrophenyl-glycoside as substrate by spectrophotometric method; set-up: species or system Oryza sativa
Prunus dulcis [14] = test: Inhibition of almond beta-glucosidase at 1000 uM using p-nitrophenyl-glycoside as substrate by spectrophotometric method
Rattus norvegicus [15] = species on record: Rattus norvegicus; test: Inhibition of rat intestinal maltase assessed as D-glucose level at 1000 uM using maltose as substrate measured after 10 to 30 mins
Bos taurus [16] = species on record: Bos taurus; test: Inhibition of bovine liver beta-glucosidase at 1000 uM using p-nitrophenyl-glycoside as substrate by spectrophotometric method
Beta-galactosidase = biological target: T4, Beta-galactosidase (Bos taurus, UniProt Q58D55); test: Inhibition of bovine liver beta-galactosidase using p-nitrophenyl-glycoside as substrate by spectrophotometric method
T4 sequence (Q58D55 whole entry): T2 sequence (whole entry)

Escherichia coli [17] = test: Inhibition of Escherichia coli beta-glucuronidase at 1000 uM using p-nitrophenyl-glycoside as substrate by spectrophotometric method
Homo sapiens [18] = species on record: Homo sapiens; test: Inhibition of human lysosomal beta-glucosidase at 1000 uM using 4-methylumbelliferyl-beta-D-glucopyranoside as substrate preincubated for 45 mins followed by substrate addition measured after 30 mins by fluorescence spectrophotometric method
[19] = biological target: T1, Tissue alpha-L-fucosidase (Bos taurus); test: Inhibition of bovine kidney alpha-L-fucosidase at 1000 uM using p-nitrophenyl-glycoside as substrate by spectrophotometric method
Penicillium decumbens = test: Inhibition of Penicillium decumbens alpha-L-rhamnosidase at 100 uM using p-nitrophenyl-glycoside as substrate by spectrophotometric method
[20] = Inhibition of bovine liver beta-glucosidase using p-nitrophenyl-glycoside as substrate by spectrophotometric method; set-up: species or system Bos taurus
[21] = Inhibition of human lysosomal beta-glucosidase using 4-methylumbelliferyl-beta-D-glucopyranoside as substrate preincubated for 45 mins followed by substrate addition measured after 30 mins by fluorescence spectrophotometric method

SMILES: OC[C@H]1[C@H](O)[C@@H](O)[C@@H]2CS/C(=N/CCCc3ccccc3)N12
- inhibition [1]: < 50%
- inhibition [2]: < 50%
- inhibition (Escherichia coli [3]): < 50%
- inhibition (Bos taurus [4]): < 50%
- inhibition [5]: < 50%
- inhibition (Prunus dulcis [6]): < 50%
- inhibition (Rattus norvegicus [7]): < 50%
- inhibition (Homo sapiens [8]): < 50%
- inhibition (Oryza sativa): < 50%
- inhibition (Aspergillus niger [9]): < 50%
- IC50 [10]: 6.8 µM

SMILES: OC[C@H]1[C@H](O)[C@@H](O)[C@@H]2CS/C(=N/Cc3ccccc3)N12
- inhibition [1]: < 50%
- inhibition [2]: < 50%
- inhibition (Escherichia coli [3]): < 50%
- inhibition (Bos taurus [4]): < 50%
- inhibition [5]: < 50%
- inhibition (Prunus dulcis [6]): < 50%
- inhibition (Rattus norvegicus [7]): < 50%
- inhibition (Homo sapiens [8]): < 50%
- inhibition (Oryza sativa): < 50%
- inhibition (Aspergillus niger [9]): < 50%
- IC50 [10]: 2.2 µM

SMILES: CCCC/N=C1/SC[C@H]2[C@H](O)[C@@H](O)[C@H](CO)N12
- inhibition [11]: < 50%
- inhibition (Aspergillus niger [12]): < 50%
- IC50 [13]: 339 µM
- inhibition (Prunus dulcis [14]): < 50%
- inhibition (Rattus norvegicus [15]): < 50%
- inhibition (Bos taurus [16]): < 50%
- IC50 (Beta-galactosidase): 719 µM
- inhibition (Escherichia coli [17]): < 50%
- inhibition (Homo sapiens [18]): < 50%
- inhibition [19]: < 50%
- IC50 [10]: 37 µM

SMILES: CCCCCCCCCCCCNC(=S)N1[C@H](CO)[C@@H](O)[C@H](O)[C@H]1CO
- inhibition [1]: < 50%
- inhibition (Escherichia coli [3]): < 50%
- inhibition [5]: < 50%
- inhibition (Penicillium decumbens): < 50%
- inhibition (Prunus dulcis [6]): < 50%
- inhibition (Rattus norvegicus [7]): < 50%
- inhibition (Oryza sativa): < 50%
- IC50 (Beta-galactosidase): 24 µM
- IC50 [20]: 23 µM
- inhibition (Aspergillus niger [9]): < 50%
- IC50 [21]: 0.16 µM

SMILES: OC[C@H]1[C@H](O)[C@@H](O)[C@@H]2CS/C(=N/CCCCCc3ccccc3)N12
- inhibition [1]: < 50%
- inhibition [2]: < 50%
- inhibition (Escherichia coli [3]): < 50%
- inhibition (Bos taurus [4]): < 50%
- inhibition [5]: < 50%
- inhibition (Prunus dulcis [6]): < 50%
- inhibition (Rattus norvegicus [7]): < 50%
- inhibition (Homo sapiens [8]): < 50%
- inhibition (Oryza sativa): < 50%
- inhibition (Aspergillus niger [9]): < 50%
- IC50 [10]: 1.8 µM

SMILES: CCCCCCCCCCNC(=S)N1[C@@H](CO)[C@H](O)[C@@H](O)[C@@H]1CO
- inhibition [1]: < 50%
- inhibition (Escherichia coli [3]): < 50%
- inhibition [5]: < 50%
- inhibition (Penicillium decumbens): < 50%
- inhibition (Prunus dulcis [6]): < 50%
- inhibition (Rattus norvegicus [7]): < 50%
- inhibition (Oryza sativa): < 50%
- IC50 (Beta-galactosidase): 61 µM
- IC50 [20]: 16 µM
- inhibition (Aspergillus niger [9]): < 50%
- IC50 [21]: 65 µM

SMILES: CCCCCCCCCC/N=C1/SC[C@@H]2[C@@H](O)[C@H](O)[C@@H](CO)N12
- inhibition [1]: < 50%
- inhibition (Escherichia coli [3]): < 50%
- inhibition [5]: < 50%
- inhibition (Penicillium decumbens): < 50%
- inhibition (Prunus dulcis [6]): < 50%
- inhibition (Rattus norvegicus [7]): < 50%
- inhibition (Oryza sativa): < 50%
- IC50 (Beta-galactosidase): 93 µM
- IC50 [20]: 63 µM
- inhibition (Aspergillus niger [9]): < 50%
- IC50 [21]: 1 µM

SMILES: CCCCCCCCCCNC(=S)N1[C@H](CO)[C@@H](O)[C@H](O)[C@H]1CO
- inhibition [1]: < 50%
- inhibition (Escherichia coli [3]): < 50%
- inhibition (Bos taurus [4]): < 50%
- inhibition [5]: < 50%
- inhibition (Penicillium decumbens): < 50%
- inhibition (Prunus dulcis [6]): < 50%
- inhibition (Rattus norvegicus [7]): < 50%
- inhibition (Oryza sativa): < 50%
- IC50 (Beta-galactosidase): 100 µM
- inhibition (Aspergillus niger [9]): < 50%
- IC50 [21]: 0.74 µM

SMILES: OC[C@H]1[C@H](O)[C@@H](O)[C@@H]2CS/C(=N/CCCCCCCc3ccccc3)N12
- inhibition [1]: < 50%
- inhibition [2]: < 50%
- inhibition (Escherichia coli [3]): < 50%
- inhibition (Bos taurus [4]): < 50%
- inhibition [5]: < 50%
- inhibition (Prunus dulcis [6]): < 50%
- inhibition (Rattus norvegicus [7]): < 50%
- inhibition (Homo sapiens [8]): < 50%
- inhibition (Oryza sativa): < 50%
- inhibition (Aspergillus niger [9]): < 50%
- IC50 [10]: 1 µM
